# US20260258084A1, “New Peptides as Selective IL-23 Receptor Antagonists” (Sanofi, priority 2022, published 2026)
# Like-named read-outs stand apart in the source and are kept apart here. Starred links: 1 amine or outer side, 2 acyl side, 3 side chain; linkers in the order of their positions; H or OH if unused. Positions of bridges follow the written chain, without caps; N, C: chain ends. Non-standard residues stand in square brackets, D forms with d. Residues, ends and D or L forms follow the SMILES beside them. *: point of attachment. X3 = CN(CCCCC(=O)N[C@@H](CS[*:2])C(=O)[*:1])[*:3]; Trp(7-Me) = Cc1cccc2c(C[C@H](N)C(=O)O)c[nH]c12; X1 = O=C(CCCCN[*:3])N[C@@H](CS[*:2])C(=O)[*:1]; αMeLys(Me2) = CN(C)CCCC[C@](C)(N)C(=O)O; X2 = CN(C)[C@@H](CCCCN[*:1])C(=O)[*:2]; 2Nal = N[C@@H](Cc1ccc2ccccc2c1)C(=O)O; AEF = NCCOc1ccc(C[C@H](N)C(=O)O)cc1; 3Pal = N[C@@H](Cc1cccnc1)C(=O)O; X4 = CN(CCCCCC(=O)[*:2])[*:1]; αMeL = CC(C)C[C@](C)(N)C(=O)O; Thp = NC1(C(=O)O)CCOCC1; Me2NCH2CH2 = CN(C)CC*; Aib = CC(C)(N)C(=O)O; Ava = NCCCCC(=O)O; Sar = CNCC(=O)O
# Assays:
# [1] = Chemical stability assessment of peptides (relative purity loss); type: physicochemical; settings: 24 hours at 37° C.; for Chemical stability (relative purity loss) Buffer pH 1.2: 50 mM HCl pH 1.2 + acetonitrile (1:1); for Chemical stability (relative purity loss) Buffer pH 6.5: 50 mM phosphate buffer pH 6.5 + acetonitrile (1:1); for Chemical stability (relative purity loss) Buffer pH 7.4: 50 mM phosphate buffer pH 7.4 + acetonitrile (1:1)
# In short: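 Peptide solutions at 1 mg/ml (purity-corrected) in 1:1 acetonitrile with 50 mM HCl pH 1.2, or 50 mM phosphate pH 6.5 or pH 7.4, held 24 hours at 2° C. and 37° C. Supernatants analysed by UHPLC-UV; relative purity loss taken as percent drop in peak-area purity from 0 to 24 hours at 37° C.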
# [2] = Solubility testing of peptides at different pH; type: physicochemical; settings: target concentration 1 mg/ml, 2 hours agitation
# In short: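 Solid obtained by drying down DMSO stock was taken up at 1 mg/mL in 50 mM HCl pH 1.2 or 50 mM phosphate pH 6.5, 7.4 or 9.0, agitated gently for 2 h, then filtered (0.45 μm). Solubility by UPLC-UV peak area against a DMSO reference standard curve, corrected for extinction coefficients.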
# Pancreatin = experiment: Protease stability in simulated intestinal fluid (Pancreatin-SIF, FaSSIF); type: in vitro ADME; settings: 1 μM peptide, 37° C.; for remaining at 1 h, 1 µM: 60 min, read-out: FaSSIF 60 (min), remaining percent of peptide; for remaining at 2 h, 1 µM: 120 min, read-out: FaSSIF 120 (min), remaining percent of peptide; for remaining at 4 h, 1 µM: 240 min, read-out: FaSSIF 240 (min), remaining percent of peptide
# In short: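 Peptide (1 μM final) was incubated at 37° C in simulated intestinal fluid containing pancreatin (1 mg per 10 mL SIF concentrate). Samples were quenched with ethanol/0.1% HCOOH at 0, 60, 120 and 240 min and analysed by LC-MS/MS. Percent remaining is the peak area relative to time 0 (100%).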
# [3] = target: T1, human interleukin-23 receptor (recombinant human IL-23R-Fc chimera) (Homo sapiens, UniProt Q5VWK5); experiment: Human ELISA IL23/IL23R (assay for specific human IL23R antagonists); type: binding; settings: Table 10; read-out: Human ELISA IL23/IL23R IC50
# T1 construct: Fc (IgG Fc fusion)
# In short: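 Plates coated overnight at 4 °C with human IL23 ([…]), blocked, then serially diluted peptides added with recombinant human IL-23R-Fc (0.1 μg/ml final) for 60 min at room temperature. Bound receptor detected with anti-human IgG1-HRP and fluorogenic peroxidase substrate.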
# Pepsin = tested on: T2, Pepsin; experiment: Protease stability in simulated gastric fluid (Pepsin-SGF, FaSSGF); type: in vitro ADME; settings: simulated gastric fluid with pepsin (Pepsin-SGF), 60 min, 1 μM peptide, 37° C., read-out: FaSSGF 60 (min), remaining percent of peptide
# T2 construct: purchased Merck Millipore
# In short: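 Peptides at 1 μM final in pepsin-containing SGF at 37° C, sampled at 0, 60, 120 and 240 min, quenched with ethanol (0.1% HCOOH). Analysed by LCMS/MS; percent remaining from peak area relative to time 0 (set to 100%).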
# [4] = 50 mM HCl buffer, 50 mM HCl pH 1.2, read-out: Solubility Buffer pH 1.2
# [5] = 50 mM phosphate buffer pH 6.5, read-out: Solubility Buffer pH 6.5
# [6] = 50 mM phosphate buffer pH 7.4, read-out: Solubility Buffer pH 7.4
# [7] = 50 mM phosphate buffer pH 9.0, read-out: Solubility Buffer pH 9.0
Chemical stability (relative purity loss) Buffer pH 1.2 [1],Chemical stability (relative purity loss) Buffer pH 6.5 [1],Chemical stability (relative purity loss) Buffer pH 7.4 [1],"solubility at 2 h [2, 4]","solubility at 2 h [2, 5]","solubility at 2 h [2, 6]","solubility at 2 h [2, 7]","remaining at 1 h, 1 µM (Pancreatin)","remaining at 2 h, 1 µM (Pancreatin)","remaining at 4 h, 1 µM (Pancreatin)",IC50 [3],"remaining at 1 h, 1 µM (Pepsin)",Compound
5.9%,0.5%,0.1%,≥ 1000 µg/mL,≥ 890 µg/mL,640 µg/mL,130 µg/mL,100%,100%,85%,0.56 nM,100%,CC(=O)N[C@H]1CCCCNC(=O)[C@@H]2CSSC[C@H](NC(=O)[C@H](CCC(N)=O)NC(=O)[C@H](Cc3c[nH]c4ccccc34)NC1=O)C(=O)N[C@@H](Cc1ccc(OCCN(C)C)cc1)C(=O)N[C@@H](Cc1ccc3ccccc3c1)C(=O)NC1(CCOCC1)C(=O)N[C@H](C(=O)N[C@@H](C)C(=O)N[C@H](CC(C)C)C(N)=O)CCC(=O)NCCCCC(=O)N2 [compound 33] (Ac-KWQCY(Me2NCH2CH2)[2Nal][Thp]EA[dL]-NH2; linker 1-4-8 via X1)
7.9%,0.0%,0.3%,≥ 970 µg/mL,≥ 910 µg/mL,270 µg/mL,140 µg/mL,100%,99%,96%,0.57 nM,84%,CC(=O)N[C@H]1CCCCNC(=O)[C@@H]2CSSC[C@H](NC(=O)[C@H](CCC(N)=O)NC(=O)[C@H](Cc3c[nH]c4ccccc34)NC1=O)C(=O)N[C@@H](Cc1ccc(OCCN)cc1)C(=O)N[C@@H](Cc1ccc3ccccc3c1)C(=O)NC1(CCOCC1)C(=O)N[C@H](C(=O)N[C@@H](C)C(=O)N[C@H](CC(C)C)C(N)=O)CCC(=O)N(C)CCCCC(=O)N2 [compound 34] (Ac-KWQC[AEF][2Nal][Thp]EA[dL]-NH2; linker 1-4-8 via X3)
2.6%,1.1%,0.9%,≥ 1010 µg/mL,≥ 1100 µg/mL,≥ 1080 µg/mL,≥ 1150 µg/mL,97%,93%,92%,0.5 nM,95%,CC(=O)NCCCC[C@@H]1NC(=O)[C@H](Cc2c[nH]c3ccccc23)NC(=O)[C@@H](N(C)C)CCCCNC(=O)[C@@H]2CSSC[C@H](NC1=O)C(=O)N[C@@H](Cc1ccc(OCCN(C)C)cc1)C(=O)N[C@@H](Cc1ccc3ccccc3c1)C(=O)N[C@@](C)(CCCCN(C)C)C(=O)N[C@H](C(=O)N[C@@H](CC(N)=O)C(=O)N[C@@H](Cc1cccnc1)C(=O)N(C)CC(N)=O)CCC(=O)NCCCCC(=O)N2 [compound 36] ([Ava]C[X2]WK(Ac)CY(Me2NCH2CH2)[2Nal][αMeLys(Me2)]EN[3Pal][Sar]-NH2; disulfide 2-6; lactam N-10)
8.3%,1.3%,3.0%,< 10 µg/mL,< 10 µg/mL,< 10 µg/mL,< 10 µg/mL,77%,70%,54%,1 nM,12%,CC(C)C[C@@H](NC(=O)[C@H](CC(N)=O)NC(=O)[C@@H]1CC(=O)N(C)CCCCCC(=O)N[C@H]2CSSC[C@H](NC(=O)[C@H](CCC(N)=O)NC(=O)[C@H](Cc3c[nH]c4ccccc34)NC(=O)[C@H]([C@@H](C)O)NC(=O)[C@H](CC(N)=O)NC2=O)C(=O)N[C@@H](Cc2ccc(OCCN(C)C)cc2)C(=O)N[C@@H](Cc2ccc3ccccc3c2)C(=O)N[C@@](C)(CC(C)C)C(=O)N1)C(N)=O [compound 40] ([X4]CNTWQCY(Me2NCH2CH2)[2Nal][αMeL]DN[dL]-NH2; disulfide 2-7; lactam N-11)
4.1%,0.1%,0.2%,< 10 µg/mL,< 10 µg/mL,< 10 µg/mL,< 10 µg/mL,64%,61%,59%,1.16 nM,88%,CC(=O)N[C@H]1CCCCNC(=O)[C@@H]2CSSC[C@H](NC(=O)[C@H](CCC(N)=O)NC(=O)[C@H](Cc3c[nH]c4ccccc34)NC1=O)C(=O)N[C@@H](Cc1ccc(OCCN)cc1)C(=O)N[C@@H](Cc1ccc3ccccc3c1)C(=O)N[C@@](C)(CC(C)C)C(=O)N[C@H](C(=O)N[C@@H](C)C(=O)N[C@H](CC(C)C)C(N)=O)CCC(=O)N(C)CCCCC(=O)N2 [compound 44] (Ac-KWQC[AEF][2Nal][αMeL]EA[dL]-NH2; linker 1-4-8 via X3)
15.7%,0.0%,2.3%,≥ 1160 µg/mL,≥ 1060 µg/mL,≥ 1180 µg/mL,350 µg/mL,82%,83%,74%,0.32 nM,100%,CC(=O)NCCCC[C@@H]1NC(=O)[C@H](Cc2c[nH]c3c(C)cccc23)NC(=O)[C@H]([C@@H](C)O)NC(=O)[C@H](CC(N)=O)NC(=O)[C@@H]2CSSC[C@H](NC1=O)C(=O)N[C@@H](Cc1ccc(OCCN(C)C)cc1)C(=O)N[C@@H](Cc1ccc3ccccc3c1)C(=O)NC(C)(C)C(=O)N[C@H](C(=O)N[C@@H](CC(N)=O)C(=O)N[C@@H](Cc1c[nH]cn1)C(=O)N(C)CC(N)=O)CCC(=O)NCCCCC(=O)N2 [compound 45] ([Ava]CNT[Trp(7-Me)]K(Ac)CY(Me2NCH2CH2)[2Nal][Aib]ENH[Sar]-NH2; disulfide 2-7; lactam N-11)
9.9%,1.9%,1.8%,≥ 1080 µg/mL,≥ 1060 µg/mL,≥ 1060 µg/mL,≥ 1030 µg/mL,89%,82%,81%,0.36 nM,100%,CC(=O)NCCCC[C@@H]1NC(=O)[C@H](Cc2c[nH]c3c(C)cccc23)NC(=O)[C@H]([C@@H](C)O)NC(=O)[C@H](CC(N)=O)NC(=O)[C@@H]2CSSC[C@H](NC1=O)C(=O)N[C@@H](Cc1ccc(OCCN(C)C)cc1)C(=O)N[C@@H](Cc1ccc3ccccc3c1)C(=O)NC1(CCOCC1)C(=O)N[C@H](C(=O)N[C@@H](CC(N)=O)C(=O)N[C@@H](Cc1c[nH]cn1)C(=O)N(C)CC(N)=O)CCC(=O)NCCCCC(=O)N2 [compound 46] ([Ava]CNT[Trp(7-Me)]K(Ac)CY(Me2NCH2CH2)[2Nal][Thp]ENH[Sar]-NH2; disulfide 2-7; lactam N-11)
2.9%,0.6%,0.9%,≥ 1000 µg/mL,≥ 950 µg/mL,540 µg/mL,110 µg/mL,87%,85%,82%,0.31 nM,96%,CC(=O)NCCCC[C@@H]1NC(=O)[C@H](Cc2c[nH]c3c(C)cccc23)NC(=O)[C@H]([C@@H](C)O)NC(=O)[C@H](CC(N)=O)NC(=O)[C@@H]2CSSC[C@H](NC1=O)C(=O)N[C@@H](Cc1ccc(OCCN(C)C)cc1)C(=O)N[C@@H](Cc1ccc3ccccc3c1)C(=O)N[C@@](C)(CC(C)C)C(=O)N[C@H](C(=O)N[C@@H](CC(N)=O)C(=O)N[C@@H](Cc1c[nH]cn1)C(=O)N(C)CC(N)=O)CCC(=O)NCCCCC(=O)N2 [compound 47] ([Ava]CNT[Trp(7-Me)]K(Ac)CY(Me2NCH2CH2)[2Nal][αMeL]ENH[Sar]-NH2; disulfide 2-7; lactam N-11)
